Experimental data as given in patent US12263248B2, “Compounds and compositions for intracellular delivery of therapeutic agents” (ModernaTX, Inc., priority 2018, dated 2025).

Tests used:
IL-6, IP-10 = test: Cytokine induction in mice upon intravenous administration; type: in vivo; set-up: Cytokine induction IL-6 / Cytokine induction IP-10: unit not given here; conditions: 0.5 mpk, 6 hours; for IP-10 induction / IL-6 induction: i.v., in words; for Cytokine induction IL-6 / Cytokine induction IP-10: intravenous
From the text: The introduction of foreign material into a mammalian body induces an innate immune response that promotes cytokine production. Such immune responses to, for example, nanoparticle compositions including therapeutic and/or prophylactics, are undesirable. The induction of certain cytokines is thus measured to evaluate the […] of nanoparticle compositions. The concentrations of various cytokines in mice upon intravenous administration of nanoparticle compositions presented in Table 1A at a dosage of 0.5 mpk was measured at 6 hours. The standard MC3 formulation and a PBS control were also tested. As is evident in Table 7, IL-6 induction was highest for compositions including Compounds 1, 3, 9, 19, and 26, while IP-10 induction was highest for compositions including Compounds 3, 4, 7, 20, and 26. IL-6 induction was lowest for compositions including Compounds 4, 11, 12, and 28. IP-10 induction was lowest for compositions including Compounds 10, 11, 12, 13, 15, 17, and 18.

[1] = Apparent (surface) pKa of the LNP formulation (TNS assay); type: physicochemical; conditions: Table 1A
Method in brief: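 LNP (0.04 mg/mL mRNA) mixed with TNS reagent in 21 buffers spanning about pH 3-12, in triplicate; fluorescence plotted against pH as sigmoidal curve. Apparent pKa taken as […] curve inflection point; validated in 1× PBS and 20 mM Tris w/8% sucrose.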

[2] = Encapsulation efficiency of RNA (QUANT-IT RIBOGREEN RNA assay); type: physicochemical; conditions: Table 1A
Method in brief: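 RiboGreen fluorescence (ex ~480, em ~520 nm) compared between intact samples and Triton X-100-lysed samples after 15 min at 37 °C in TE buffer, pH 7.5. Percent free RNA is the blank-corrected intact/disrupted ratio.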

[3] = Particle size and polydispersity index of nanoparticle compositions (Zetasizer Nano ZS); type: physicochemical; conditions: Table 1A; for Size (nm): lipid:DSPC:cholesterol:PEG-DMG 50:10:38.5:1.5 mol %
Method in brief: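 Particle size and PDI were measured on a Zetasizer Nano ZS with the nanoparticle compositions dispersed in 1×PBS.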

luciferase (Luc) mRNA [4] = test: Luc expression in liver, lung, spleen and femur 6 hours after intravenous administration; type: in vivo; conditions: mice, 0.5 mpk; for Total Flux Femur / Total Flux Liver / Total Flux Lung / Total Flux Spleen: intravenous
Method in brief: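 LNP-formulated mRNA given IV to mice (n=3) at 0.5 mpk; at 6 h, bioluminescence imaged ex vivo 15 min after IP D-luciferin (15 mg/mL, 200 μL), organs imaged within 25 min. Values are total flux by region of interest.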

luciferase (Luc) mRNA [5] = test: Luc expression, whole body bioluminescence after intravenous administration to mice; type: in vivo; conditions: for Total Flux 3 hours / Total Flux 6 hours / Total Flux 24 hours: Luc mRNA; for Fold increase in total body Luc Flux relative to MC3 at 6 h: Table 3A, i.v. administration
Method in brief: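 Luc mRNA nanoparticle formulations given intravenously to mice (n=6) at 0.5 mg/kg; whole-body bioluminescence imaged at 3, 6 and 24 h. CD-1 mice received IP D-luciferin (200 μL of 15 mg/mL) 15 min before imaging; total flux quantified by region of interest.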

IP-10 induction (IL-6, IP-10)	Cytokine induction IL-6 (IL-6, IP-10)	Cytokine induction IP-10 (IL-6, IP-10)	pKa [1]	EE (%) [2] [%]	PDI [3]	Size (nm) [3] [nm]	IL-6 induction (IL-6, IP-10)	SMILES	Total Flux Femur (luciferase (Luc) mRNA [4])	Total Flux Liver (luciferase (Luc) mRNA [4])	Total Flux Lung (luciferase (Luc) mRNA [4])	Total Flux Spleen (luciferase (Luc) mRNA [4])	Total Flux 3 hours (luciferase (Luc) mRNA [5]; mice, i.v., 0.5 mg/kg)	Total Flux 6 hours (luciferase (Luc) mRNA [5]; mice, i.v., 0.5 mg/kg)	Total Flux 24 hours (luciferase (Luc) mRNA [5]; mice, i.v., 0.5 mg/kg)	flux at all timepoints measured (luciferase (Luc) mRNA [5]; mice, i.v., 0.5 mg/kg, 3, 6 and 24 hour, in words)	Fold increase in total body Luc Flux relative to MC3 at 6 h (luciferase (Luc) mRNA [5])	Flux in the spleen (luciferase (Luc) mRNA [4]; i.v., in words)	total flux at 3 hours (luciferase (Luc) mRNA [5]; mice, i.v., 0.5 mg/kg, comparison in words)
lowest	88.81	138.16	6.09	89.60	0.18	102.9	–	CCCCCCCCCOC(=O)CCCCCCCN(CCCCCCCC(=O)OC(CCCCCCCC)CCCCCCCC)CC(C)O (stereo not shown) [Compound 10, Heptadecan-9-yl 8-((2-hydroxypropyl)(8-(nonyloxy)-8-oxooctyl)amino) octanoate]	5.09E+05	3.22E+08	8.85E+05	8.17E+06	6.03E+08	2.37E+09	4.04E+07	–	–	–	–
lowest	138.43	156.41	7.76	91.84	0.24	85.2	–	CCCCCCCCCOC(=O)CCCCCCCN(CCCCCCCC(=O)OC(CCCCCCCC)CCCCCCCC)CCOCCN(C)C [Compound 17, Heptadecan-9-yl 8-((2-(2-(dimethylamino)ethoxy)ethyl) (8-(nonyloxy)-8-oxooctyl)amino)octanoate]	9.55E+04	5.52E+05	9.95E+04	5.58E+06	7.72E+06	3.58E+06	6.79E+05	significantly lower flux	–	–	–
–	32.01	206.75	5.52	91.32	0.16	119.0	–	CCCCCCCCCOC(=O)CCCCCCCN(CCCCCCCC(=O)OC(CCCCCCCC)CCCCCCCC)CCCOC [Compound 16, Heptadecan-9-yl 8-((3-methoxypropyl)(8-(nonyloxy)-8-oxooctyl)amino) octanoate]	2.55E+05	3.17E+07	4.18E+05	5.43E+06	2.58E+08	5.45E+08	2.37E+07	–	0.02	–	–
lowest	29.07	126.29	5.67	92.28	0.13	79.4	–	CCCCCCCCCOC(=O)CCCCCCCN(CCCCCCCC(=O)OC(CCCCCCCC)CCCCCCCC)CC(O)CC (stereo not shown) [Compound 13, Heptadecan-9-yl 8-((2-hydroxybutyl)(8-(nonyloxy)-8-oxooctyl)amino) octanoate]	1.35E+05	2.25E+07	2.21E+05	7.09E+05	1.02E+08	1.56E+08	1.47E+06	–	–	–	–
highest	13.1375	2253.09	6.33	95.10	0.21	120.5	lowest	CCCCCCCCC(CCCCCCCC)OC(=O)CCCCCCCN(CCO)CCCCCCCC [Compound 4, Heptadecan-9-yl 8-((2-hydroxyethyl)(octyl)amino)octanoate]	–	5.26E+09	6.22E+07	4.09E+08	1.37E+11	6.01E+10	1.13E+09	–	1.31	highest	highest
–	90.54	976.50	6.21	96.00	0.22	80.2	–	CCCCCCCCCOC(=O)CCCCCCCN(CCCCCCCC(=O)OC(CCCCCCCC)CCCCCCCC)C1CCCCC1O (stereo not shown) [Compound 22, Heptadecan-9-yl 8-((2-hydroxycyclohexyl)(8-(nonyloxy)-8-oxooctyl)amino)octanoate]	1.16E+05	4.00E+07	4.73E+05	1.57E+06	6.57E+08	3.89E+08	2.73E+07	–	–	–	–
lowest	0.14	44.84	5.97	92.47	0.13	129.6	lowest	CCCCCCCCCOC(=O)CCCCCCCN(CCCCCCCC(=O)OC(CCCCCCCC)CCCCCCCC)C[C@@H](C)O [Compound 11, Heptadecan-9-yl (R)-8-((2-hydroxypropyl)(8-(nonyloxy)-8-oxooctyl)amino)octanoate]	–	8.03E+08	1.35E+07	1.04E+08	3.38E+09	7.11E+09	1.15E+08	–	–	–	–
lowest	64.65	184.30	5.58	92.47	0.094	111.1	–	CCCCCCCCCOC(=O)CCCCCCCN(CCCCCCCC(=O)OC(CCCCCCCC)CCCCCCCC)CCOC [Compound 15, Heptadecan-9-yl 8-((2-methoxyethyl)(8-(nonyloxy)-8-oxooctyl)amino)octanoate]	5.93E+04	6.23E+06	6.41E+04	9.01E+05	4.31E+08	4.41E+07	2.05E+06	–	–	–	–
